# Experimental data from ChEMBL document CHEMBL3507680, “University of Dundee, Gates Library screen for HepG2 cell viability”.
# Experiment: Human HepG2 cell viability assay in 384 well format
# Assay type: toxicity, cell-based
# Parameters: dose 125 nL, time 70.5 hour; concentration not given beside the values
# Settings: HepG2 cells, read-out: Inhibition
row,SMILES,cytotoxicity at 70.5 h
1,CNC(=O)c1cccc(CNC2CCSc3c(Cl)cccc32)c1 (stereo not drawn),35.4%
2,CCOc1ccccc1-n1c(-c2cn(CC)nc2C)n[nH]c1=O,-4.81%
3,CNC(=O)[C@@]12CCO[C@@H]1CCN(S(=O)(=O)c1ccccc1)C2,-6.28%
4,CCCNC(=O)CN1CCC(C(=O)Nc2cnn(CC)c2)CC1,-10.8%
5,Cc1cccc(C(C(=O)N2CC(c3ccccn3)C2)N(C)C)c1 (stereo not drawn),-3.41%
6,CCc1nc(C)sc1CN1CC[C@@](O)(CCOC)[C@H](C)C1,-5.48%
7,CCc1cc2c(N3CCCC(c4ccn[nH]4)C3)ncnc2s1 (stereo not drawn),2.73%
8,CC(NC(=O)N1CCN(c2cccs2)CC1)c1ccncc1 (stereo not drawn),-3.43%
9,Cc1cc(C(F)(F)F)nc(CNC(=O)CCCN2CCCCC2)n1,-2.62%
10,CC(C)(C)c1nc(CN(Cc2cccs2)C2CCS(=O)(=O)C2)no1 (stereo not drawn),-4.17%
11,COCc1ccc(C(=O)N2CCC(c3cc4ncc(C)nc4[nH]3)C2)cc1 (stereo not drawn),-4.31%
12,COc1ccc(F)c(-c2cc(C)nc(N)n2)c1,-7.05%
13,Cc1ccc(OCc2occc2C(=O)N2CCCCC(N)C2)cc1 (stereo not drawn),-2.2%
14,O=C(NCc1ccccn1)[C@]12COC[C@H]1CN(Cc1ccccc1F)C2,-7.42%
15,N#CC1(c2ccccc2)CCN(C(=O)C2CCCN(C(N)=O)C2)CC1 (stereo not drawn),43.9%
16,Cc1nn(C)c(C)c1NC(=O)CN1CCc2c(nc(C(C)C)n2C)C1,-10.5%
17,CC(C)c1cc(NC(=O)CN2CCC(C(N)=O)CC2)on1,-6.12%
18,CCc1ccc(CN2CCNC(C(=O)N3CCN(C)CC3)C2)o1 (stereo not drawn),-3.44%
19,COc1cc(NCCCSc2nnc(C)s2)ncn1,12%
20,COc1cc(N2C[C@H]3CN(C(=O)c4cccnc4)C[C@H]3C2)ncn1,-2.8%
21,O=C(Nc1nc2c(s1)CN(S(=O)(=O)C1CC1)CC2)c1ccc(=O)[nH]c1,-10.9%
22,Cn1ncc2c(NCCn3cccc3)nc(C3CCCC3)nc21,-5.71%
23,O=C(Nc1nncs1)NC1CCN(Cc2ccccc2)C1 (stereo not drawn),-5.56%

row,SMILES,cytotoxicity at 70.5 h
1,CNC(=O)CC1CCN(C(=O)NCc2cn3c(C)cccc3n2)CC1,-14.3%
2,OC1CCN(c2cncc(CCC3CCCN3)n2)CC1 (stereo not drawn),-4.54%
3,COCCNC(=O)[C@H]1CN(Cc2sccc2C)C[C@H]2OCC[C@@H]12,7.63%
4,Cc1nc(C(NC(=O)CN(C)C(C)C)c2ccccc2F)no1 (stereo not drawn),-4.07%
5,COc1ccc2c(c1)c(C(=O)Nc1cc(C)n(C)n1)cn2C(C)C,-0.21%
6,c1ncc(-c2cn(CCSc3cnn[nH]3)nn2)cn1,-6.48%
7,CCc1nc(C2CCCN(C(=O)c3ccc(OC)cc3)C2)no1 (stereo not drawn),0.812%
8,CN(C)Cc1nc(C2(NC(=O)Nc3cccc(F)c3)CCCC2)no1,-2.26%
9,CCc1oc(C(=O)NCCSc2ncn[nH]2)cc1CN1CCCC1,-9.51%
10,Cc1cc(C)c2c(c1)NC(=O)C2CC(=O)O (stereo not drawn),-4.36%
11,CN(C)c1ncccc1NC(=O)COC1CCCC1,-5.74%
12,CC1CCN(C(=O)c2ccn(COc3ccccc3)n2)CC1,-4.91%
13,Cc1nccn1C1CCCN(C(=O)c2sccc2-n2cnnn2)C1 (stereo not drawn),-8.22%
14,NS(=O)(=O)c1cccnc1NCc1ccco1,-4.56%
15,O=C(NCCNc1ncccn1)Nc1cc(C(F)(F)F)c[nH]c1=O,-3.37%
16,O=C(c1ccco1)N(c1ccc(F)cn1)C1CCOCC1,26.4%
17,Cc1ccnc(C2(C)CCCN2C(=O)c2cnccn2)n1 (stereo not drawn),-10.4%
18,c1nc(CN2CCCC(Cc3ccc(NC4CCCC4)nn3)C2)c[nH]1 (stereo not drawn),0.181%
19,N#Cc1ccc(C(=O)N2CCC3(CC2)CC3)cc1,4.59%
20,Cc1nn(C)c(N2CCOCC2)c1CNCc1ccc(Cl)s1,-2.69%
21,CC1(c2ccc(Br)cc2)CC(=O)N(CCC(N)=O)C1=O (stereo not drawn),-6.18%
22,Cc1ccc(-c2ccnc(N3CCC4(CCO4)CC3)n2)c(C)n1,-6.98%
23,COCCc1noc(CN(C)C2CCCN(c3cccnn3)C2)n1 (stereo not drawn),22.9%

row,SMILES,cytotoxicity at 70.5 h
1,O=C(C1CCC1)N1CCc2onc(Cn3cccn3)c2C1,17.9%
2,CCCN1CCN(C(=O)Cn2nc(C(F)(F)F)c(Br)c2C2CC2)CC1,-6.28%
3,CCNc1ccnc(NC2CCN(CC(N)=O)CC2)n1,14%
4,O=C(Cc1n[nH]c2ccccc12)N1CCC(Nc2cccnn2)CC1,-2.23%
5,Cc1cc(NC(=O)N(C)CCN2CCN(c3ccccc3)CC2)on1,-2.89%
6,CCN1CCN(C(=O)Cn2nc(C(F)(F)F)c(Br)c2C2CC2)CC1,-7.97%
7,Cn1nc(C(=O)N2CC(Oc3nc4c(Cl)cccc4s3)C2)ccc1=O,-8.11%
8,O=C1N(c2cccc(Cl)c2)Cc2nc(=O)[nH]n21,-3.18%
9,Cc1ccc(C(=O)N2CCC3(CCN(Cc4ccccn4)C3=O)C2)cn1 (stereo not drawn),-5.23%
10,CCn1c(CC2CCN(S(=O)(=O)c3cccs3)CC2)nn(C)c1=O,10.6%
11,CC(C)N(CCNC(=O)N1CCCC(N(C)C)C1)C1CC1 (stereo not drawn),13.5%
12,CN1CCCC1CNC(=O)CCCOc1ccc(Cl)cc1 (stereo not drawn),-2.04%
13,O=C(c1ccc2c(c1)CCC2)N1CCCCC1C1OCCO1 (stereo not drawn),-7.93%
14,O=C(Nc1cccnc1)NC(CCCO)c1ccccc1 (stereo not drawn),-16%
15,Cc1cnn(CCC(=O)N2CCN(C(=O)C(C)C)[C@@H]3CS(=O)(=O)C[C@@H]32)c1,-9.72%
16,Cn1c(NCCC(=O)N2CCCC2)c(C#N)c(=O)n(C)c1=O,3.58%
17,CCC(CC)CN1CCC(n2cc(C3CCCC3)nn2)CC1,-3.87%
18,COCC(=O)Nc1nnc2n(Cc3cccc(OC)c3)[nH]c(C)c1-2,-5.86%
19,CC(=O)NCc1ccc(C(=O)N2CCCc3c(F)ccc(C)c32)cc1,-8.8%
20,Cc1nccc(CNC(=O)CCc2c(C)nc3cc(O)nn3c2C)n1,-5.73%
21,CS(=O)(=O)NC[C@@H]1OC[C@H]2CN(Cc3ccsc3)CC[C@H]21,18.6%
22,c1cc(CN2CCC(c3ccnc4nccn34)C2)ccn1 (stereo not drawn),-1.62%
23,CC(O)CN1CCN(Cc2coc(-c3ccccc3Cl)n2)CC1 (stereo not drawn),-4.11%

row,SMILES,cytotoxicity at 70.5 h
1,Cc1occc1C(=O)Nc1cnn(CCN2CCOCC2)c1,16.8%
2,CCn1c(CN2CCCN(C(=O)OC)CC2)nc2c(F)cccc21,18.8%
3,COCCn1ccc(=O)c(OCC(=O)Nc2cccc(OC)c2)c1C,13.8%
4,CCC(C)N(Cc1ccncc1)Cc1ccc(-n2cccn2)cc1 (stereo not drawn),-5.94%
5,Cc1nn(C)c2nc(NC(C)c3n[nH]c(=O)[nH]3)sc12 (stereo not drawn),-10.8%
6,CC(C)NC(=O)N1CCN(C(=O)c2ccco2)CC2(CC(=O)N(C)C2)C1 (stereo not drawn),-23.2%
7,O=C(N[C@@H]1CN(c2ncccn2)C[C@@H]2CCCO[C@@H]21)c1ccnnc1,-6.03%
8,Cc1nc(C(=O)N2CCN(S(C)(=O)=O)CC2)c(-c2ccccc2)s1,9.71%
9,COc1ncc(CN2CCCC2c2[nH]ncc2C(=O)N(C)C)cn1 (stereo not drawn),23.2%
10,Cc1nnsc1CN1C[C@@H]2CC[C@H](C1)N(Cc1c(C)noc1C)C2=O,-0.902%
11,Cc1cc(CSCc2csc(CS(C)(=O)=O)n2)no1,2%
12,COc1ccc(N(C)C(=O)c2cccc(S(C)(=O)=O)c2)cn1,-3.33%
13,Cc1ccc(C)c(CC(=O)NC2(C#N)CCOCC2)c1,1.6%
14,Cc1ncccc1C(=O)Nc1cccc(C[S+](C)[O-])c1C (stereo not drawn),0.697%
15,CC(O)CN1CCC(CNCc2cccc(OC(C)C)c2)CC1 (stereo not drawn),47%
16,CNC(=O)CN1CCC(OCC2CCCO2)CC1 (stereo not drawn),-8.23%
17,CCc1cnc(CN2C(=O)CC3(CCSC3)C2=O)o1 (stereo not drawn),11.4%
18,COc1cc(CNc2nncs2)cc(OC)c1OC,12.6%
19,Cn1ncc2c(NC3CCC3)nc(-c3ccncc3)nc21,-0.235%
20,NC(=O)C1CCN(Cn2nc(-c3ccc(F)cc3)oc2=O)C1 (stereo not drawn),-7.79%
21,CCc1noc(C(C)N2CCN(c3ccc(C#N)cc3F)CC2)n1 (stereo not drawn),-24.4%
22,CCC(C)N(C)CCNC(=O)NCc1cccc(-n2cncn2)c1 (stereo not drawn),-2.22%
23,c1cnn(CC2CCCN2Cc2nc(C3CC3)no2)c1 (stereo not drawn),-8.97%

row,SMILES,cytotoxicity at 70.5 h
1,O=C(c1cn(-c2ccc(C(F)(F)F)cn2)nn1)N1CCCCCC1,-3.98%
2,CCC(CO)N(Cc1ccccc1C)Cc1ccccc1C(=O)O (stereo not drawn),-2.15%
3,Clc1cc(NCc2nccs2)nc2[nH]ccc12,-30.7%
4,CCC1CCCN(Cc2nc(N)c3ccccc3n2)C1 (stereo not drawn),4.3%
5,Cn1cc(C2CCCN2C(=O)CCCOc2ccc(F)cc2F)cn1 (stereo not drawn),-11.3%
6,CCO[C@@H]1CO[C@@]2(CCCN(Cc3scnc3C)C2)C1,-11.1%
7,c1ccc(C(OCCNC2CCc3ncnn3C2)c2ccccc2)cc1 (stereo not drawn),-5.27%
8,CCSc1ccccc1C(=O)N1CCC(S(=O)(=O)c2nncn2C)CC1,-5.86%
9,O=C(NCCCN1CCCC1=O)Nc1ccc(Br)cc1Cl,-3.68%
10,c1ccc2c(c1)CCN(c1ncnc3sc4c(c13)CCNC4)C2,-2.21%
11,O=S(=O)(c1cc(F)ccc1F)N1CCCC1c1ccco1 (stereo not drawn),-6.01%
12,COc1ccc(CC(=O)NCCNS(=O)(=O)c2ccc(C)cc2)cc1,2.16%
13,CCS(=O)(=O)N1CCC(c2cc3n(n2)[C@@H](C(F)(F)F)C[C@@H](C)N3)CC1,-17.1%
14,Cc1oc(NC(=O)C(C)N2CCN(C(C)(C)CO)CC2)c(C#N)c1C (stereo not drawn),-4.43%
15,COc1cccc(OCCN2CC[C@@](O)(C3CCOCC3)[C@H](C)C2)c1,1.27%
16,Cc1nc(COC[C@@H]2CC[C@H]3[C@H](CCN3C(=O)C3CC3)O2)cs1,-7.97%
17,CC(=O)NCCNc1nc(-c2ccccn2)nc2c1c(C)nn2C,1.86%
18,Cc1nc(CN2CCCC(NCc3ccc4c(c3)CCO4)C2)no1 (stereo not drawn),14.2%
19,Cn1c(CCCNc2nccnc2C#N)nc2ccccc21,1.96%
20,COCCNc1cc(-c2ccccc2S(N)(=O)=O)c2cc[nH]c2n1,-7.36%
21,Cc1nc(C)c(C)c(N2CCC(NCCOc3ccccc3)CC2)n1,17.8%
